Values of other authors in article PMC7651685 (Psychopharmacology, 2020).

Legend:
[1] = tested on: dopamine efflux in the nucleus accumbens; parameters: method as in Rowley et al. [2017]; details: rat nucleus accumbens microdialysis; ref Rowley et al. [2017]; cited from earlier work
DAT = details: ref Markowitz et al. [2006]; read-out: Affinity for DAT, IC50; cited from earlier work
[2] = no reference given; cited from earlier work

SMILES: C[C@H](N)Cc1ccccc1 [d-amphetamine]
- Time of peak of dopamine efflux [1]: 40 min

SMILES: CC(C)(N)Cc1ccccc1 [phentermine]
- Time of peak of dopamine efflux [1]: 40 min

SMILES: O=C(O)C(c1ccccc1)C1CCCCN1 (stereo not shown) [ritalinic acid]
- Pharmacological activity [2]: pharmacologically inactive
